Laboratory results from patent publication US11639531B2, “Composition, kit, and method for diagnosis and treatment of taxane anticancer agent-resistant cancer” (SUNGKWANG MEDICAL FOUNDATION, priority 2018, dated 2023).

Assays:
Type in all cases: cell-based, human
[1] = test system: SKpac-17 cells; test: Spheroid-forming assay (miR-150); settings: PTX alone-treatment
Method: Spheroid-forming assays were performed to verify the effect of miR-150 on cancer stem cell activation. SKpac-17 cells were transfected with pre miR-150 or pre miR-negative. Cells were plated in Ultra-Low-Attachment Surface 6-well culture plates (Corning, Action, MA, USA) in serum-free DEME/F12 medium (Gibco/Life Technologies, Grand Island, N.Y., USA) supplemented with 20 ng/ml epidermal growth factor (Gibco, Carlsbad, Calif., USA), 10 ng/ml basic fibroblast growth factor (Sigma-Aldrich, St. Louis, Mo., USA), 0.4% bovine serum albumin (Sigma-Aldrich, St. Louis, Mo., USA), and 5 μg/mL insulin (Sigma-Aldrich, St. Louis, Mo., USA) at a density of 1000 cells/cm^2. Spheroid formation (of 50 to 100 cells per spheroid) was assessed 7 days after seeding.
In order to verify the effect of miR-150 transfection on cancer stem cells (CSCs) activation, a spheroid-forming assay was performed on paclitaxel-resistant SKpac cells in this Example, and alteration of mRNA of the stemness genes was detected using real-time RT-PCR.

[2] = test system: SKpac cells (SKpac-12, SKpac-16, and SKpac-17); test: TUNEL assay for apoptosis (miR-150); settings: 48 hours
Method: TUNEL assays were performed after pre miR-150 transfection in SKpac-12 and SKpac-17. After 48 hours, apoptotic cells were analyzed using the In Situ Cell Death Detection kit (Roche, Mannheim, Germany). 2×10^7 cells were fixed with 75% ethanol for 2 hours at −20° C. The cells were washed twice with PBS and incubated with 0.1% Triton X-100 and 0.1% sodium citrate for 2 minutes on ice. After washing twice with PBS, the cells were incubated with a TUNEL-labelling mixture for 1 hour at 37° C. in the dark. The samples were washed twice with PBS and analyzed by fluorescence activated cell sorting (FACS) (Becton Dickinson, Franklin Lakes, N.J., USA).
In addition, to determine the effect of miR-150 on apoptosis, the SKpac cells (SKpac-12, SKpac-16, and SKpac-17) were transfected with pre miR-150, and then a TUNEL assay was performed on the cells. […] Collectively, the pre miR-150 transfection by itself or increased a sensitivity of tumor cells with respect to PTX and thus decreased tumor cell proliferation and induced apoptosis in PTX-resistant ovarian cancer cells.

[3] = test system: HUVECs; test: Angiogenesis (tube formation) assay (miR-150)
Method: Matrigel (BD Biosciences, California, USA) was placed into flat-bottom, 96-well plate and polymerized for 1 hour at 37° C. HUVECs incubated in M199 containing 1% FBS were harvested after trypsin treatment, resuspended in M199, plated onto the layer of Matrigel at a density of 1×10^4 cells/well, and the supernatant of SKpac-17 cells transfected by pre miR150 was added. After 24 hours, 48 hours, and 72 hours, tube formation was observed.
Cell migration and angiogenesis are important factors that influence tumor progression and metastasis. In this Example, a wound healing assay and a tube formation assay were performed to examine the effect of pre miR-150 on cell migration and the effect on angiogenesis, respectively.

[4] = test system: SKpac cells; test: WST (CCK-8) cell viability assay (miR-136); settings: PTX-alone treatment
Method: In order to investigate the role of miR-136 in the anticancer agent-sensitivity and proliferation activity of PTX-resistant SKpac cells, cell survival rate, cell proliferation, and apoptosis analyses were performed on the SKpac cells transfected by miR-136 mimics. […] In addition, to confirm whether overexpression of miR-136 increases cell toxicity induced by PTX, degrees of apoptosis were evaluated using a TUNEL analysis. […] In collection of these experiment results, it may be known that the overexpression of miR-136, when used alone or in a combination with PTX, decreases cell viability and cell proliferation of anticancer agent-resistant ovarian cancer cells and increases apoptosis.

In the case of `CC(=O)O[C@H]1C(=O)[C@@]2(C)[C@H]([C@H](OC(=O)c3ccccc3)[C@]3(O)C[C@H](OC(=O)[C@H](O)[C@@H](NC(=O)c4ccccc4)c4ccccc4)C(C)=C1C3(C)C)[C@]1(OC(C)=O)CO[C@@H]1C[C@@H]2O` [PTX, paclitaxel], the spheroid formation [1] is reported as “no changes”, the “apoptosis of the comparison treatments” value [2] is reported as 3.5% and the “reduction effect (migration / tube formation)” value [3] is reported as “not observed”. The “influence on the cell viability” value [4] was “no influence”.
